Broadly, the IC50 is the concentration needed to halve the response being measured.

One test deals with Heme. The test can be described thus: Inhibition of heme polymerization in Plasmodium falciparum after 15 min by liquid scintillation counting analysis in presence of [14C]-hemin chloride.
The subject of test [1] is Plasmodium falciparum. The test can be described thus: Antimalarial activity against chloroquine-sensitive Plasmodium falciparum 3D7 assessed as incorporation of [3H]hypoxanthine after 48 hr microdilution method. Type of test: functional, organism-based. On the technique in general: Broth dilution looks for growth in wells or tubes with falling amounts of substance.
Test [2] concerns Plasmodium falciparum. The test can be described thus: Antimalarial activity against chloroquine-resistant Plasmodium falciparum K1 assessed as incorporation of [3H]hypoxanthine after 48 hr microdilution method. Type of test: functional, organism-based.

`CCN(CC)Cc1cc(Nc2ccnc3cc(Cl)ccc23)ccc1O`: the IC50 in the test with Heme turned out to be 15000 nM; with Plasmodium falciparum [1] it was 7.8 nM; with Plasmodium falciparum [2], 18 nM.

In the case of `CC(C)(C)NCc1cc(Nc2ccnc3cc(Cl)ccc23)ccc1O` [N-TERT-BUTYL-AMODIAQUINE], the IC50 in the test with Heme was determined as 32000 nM; in the test with Plasmodium falciparum [1], 5.5 nM; in the test on Plasmodium falciparum [2] it was 9.1 nM.

For `NCc1cc(Nc2ccnc3cc(Cl)ccc23)ccc1O` [BIDESETHYL AMODIAQUINE], the IC50 was 73000 nM in the test with Heme, 21 nM in the test on Plasmodium falciparum [1] and 170 nM in the test on Plasmodium falciparum [2].

Consider `CC(CCCN)Nc1ccnc2cc(Cl)ccc12` (stereo unspecified) [BIDESETHYL CHLOROQUINE], for which the figures for the IC50 in the test on Heme and in the test on Plasmodium falciparum [1] were 58000 nM and 55 nM, respectively.

Take `CCN(CC)Cc1cc(Nc2ccnc3cc(Cl)ccc23)cc(-c2ccc(Cl)cc2)c1` [DEHYDROXY TEBAQUINE]: the IC50 in the test with Heme was determined as 51000 nM; in the test on Plasmodium falciparum [1] it was 42 nM.

Regarding `CCN(CC)Cc1cc(Nc2ccnc3cc(Cl)ccc23)cc(-c2ccc(Cl)cc2)c1O` [TEBAQUINE], the IC50 in the test on Heme was determined as 53000 nM; in the test on Plasmodium falciparum [1], 9.5 nM; with Plasmodium falciparum [2], 13 nM.

`CCCCN(CCCC)CCC(O)c1cc2c(Cl)cc(Cl)cc2c2cc(C(F)(F)F)ccc12` (stereo unspecified) [HALOFANTRINE]: the values for the IC50 with Heme, in the test on Plasmodium falciparum [1] and with Plasmodium falciparum [2] were 180000 nM, 5.8 nM and 2.8 nM, respectively.

On to `COc1ccc2nc3cc(Cl)ccc3c(Nc3cc(CN4CCCC4)c(O)c(CN4CCCC4)c3)c2n1` [PYRONARIDINE], for which the IC50 in the test on Heme was 64000 nM; in the test on Plasmodium falciparum [1], 5.7 nM; in the test on Plasmodium falciparum [2], 9.1 nM.

For the compound `CCN(CC)CCCC(C)Nc1ccncc1` (stereo unspecified), the results for the IC50 with Heme, with Plasmodium falciparum [1] and in the test on Plasmodium falciparum [2] were 92000 nM, 12000 nM and 15000 nM, respectively.

On to `Oc1ccc(Nc2ccnc3cc(Cl)ccc23)cc1`, for which the results for the IC50 with Heme and in the test with Plasmodium falciparum [1] were 19000 nM and 1400 nM, respectively.

Consider `CCN(CC)Cc1cc(Nc2ccncc2)ccc1O`, for which the IC50 came out at 72000 nM with Heme and 680 nM in the test on Plasmodium falciparum [1].

With `CCN(CC)CCCC(C)Nc1ccnc2cc(Cl)ccc12` (stereo unspecified) [CHLOROQUINE], the IC50 with Heme is 24000 nM.

In the case of `CCN(CC)CCCC(C)Nc1c2ccc(Cl)cc2nc2ccc(OC)cc12` (stereo unspecified) [QUINACRINE], the IC50 was 41000 nM with Heme and 13 nM in the test on Plasmodium falciparum [1].

Regarding `C=C[C@H]1CN2CC[C@H]1C[C@@H]2[C@@H](O)c1ccnc2ccccc12` [CINCHONINE], the values for the IC50 in the test on Heme, in the test on Plasmodium falciparum [1] and in the test with Plasmodium falciparum [2] were 23000 nM, 21 nM and 56 nM, respectively.

On to `CC(CCCN1CCCC1)Nc1ccnc2cc(Cl)ccc12` (stereo unspecified) [Chloroquine-pyrolidinyl], for which the results for the IC50 in the test on Heme and in the test on Plasmodium falciparum [1] were 44000 nM and 19 nM, respectively.

On to `CCNCc1cc(Nc2ccnc3cc(Cl)ccc23)ccc1O` [DESETHYL AMODIAQUINE], for which the IC50 amounted to 43000 nM with Heme, 6.9 nM in the test with Plasmodium falciparum [1] and 39 nM with Plasmodium falciparum [2].

For `CCNCCCC(C)Nc1ccnc2cc(Cl)ccc12` (stereo unspecified) [DESETHYLCHLOROQUINE], the IC50 with Heme came to 45000 nM; in the test on Plasmodium falciparum [1], 19 nM; in the test with Plasmodium falciparum [2] it was 720 nM.

Regarding `C=C[C@H]1CN2CC[C@H]1C[C@@H]2[C@@H](O)c1ccnc2ccc(OC)cc12` [QUINIDINE], the half-inhibitory concentration (IC50) in the test on Heme worked out at 24000 nM; with Plasmodium falciparum [1], 21 nM.

`C=C[C@H]1CN2CC[C@H]1C[C@H]2[C@H](O)c1ccnc2ccccc12` [CINCHONIDINE]: the IC50 was found to be 27000 nM in the test on Heme, 40 nM in the test with Plasmodium falciparum [1] and 91 nM with Plasmodium falciparum [2].

In the case of `Oc1ccc(Nc2ccnc3cc(Cl)ccc23)cc1CN1CCCC1` [AMOPYROQUINE], the results for the IC50 with Heme, with Plasmodium falciparum [1] and in the test on Plasmodium falciparum [2] were 30000 nM, 5.3 nM and 12 nM, respectively.

For the compound `O[C@@H](c1cc(C(F)(F)F)nc2c(C(F)(F)F)cccc12)[C@H]1CCCCN1` (relative stereo) [(S,R)-MEFLOQUINE], the results for the IC50 with Heme, in the test on Plasmodium falciparum [1] and in the test on Plasmodium falciparum [2] were 47000 nM, 23 nM and 9.4 nM, respectively.

As to `C=C[C@H]1CN2CC[C@H]1C[C@H]2[C@H](O)c1ccnc2ccc(OC)cc12` [QUININE], the IC50 amounted to 65000 nM in the test on Heme and 34 nM with Plasmodium falciparum [1].

The values above are taken from ChEMBL document CHEMBL3044897, “Pharmacophore-based predictive model generation for potent antimalarials targeting haem detoxification pathway” (Med Chem Res, 2007).
